Results published in US20240360109A1 (SHANGHAI HANSOH BIOMEDICAL CO., LTD., priority 2021, published 2024).

Assays:
[1] = early clinical practice; cited from earlier work
[2] = system: GLP-1R humanized C57BL/6 mice; assay: Intraperitoneal glucose tolerance (ipGTT) after single administration in GLP-1R humanized mice; format: in vivo; details: single administration 0.3 mg/kg, glucose 2 g/kg intraperitoneal 1 hour after administration, AUC 0-120 min, versus model control group
Source text: To evaluate the effect of single administration of the compound of the present invention on blood glucose changes in the intraperitoneal glucose tolerance (ipGTT) experiment in GLP-1R humanized C57BL/6 mice.
C57BL/6_hGLP-1R, male, 5-8 weeks; Ultra-clean workbench; Electronic balance; Vitality type blood glucose meter; Glucose.
3.1 On the day before the experiment, the animals were randomly divided according to their weight, with 5 animals per group. All animals were deprived of food overnight and fasted for more than 16 hours from the time of administration.
3.2 0.2 g/mL glucose solution was prepared with pure water and filtered by 0.22 µm filter membrane for use.
3.3 On the testing day, the blood glucose value of each animal was measured successively by tail clipping method before administration, which was recorded as Baseline value;
Blood glucose test method: the mouse was placed in the immobilizer, the tail tip was disinfected with an alcohol cotton ball, then a little tail tip was cut off with scissors, the first drop of blood was discarded, and the second drop of blood was dropped onto the prepared blood glucose test strip to detect the blood glucose value;
3.4 The animals were administered according to animal weight, and the administration time was record for each animal. After 1 hour of administration, the blood glucose value of each animal was measured sequentially, and recorded as the 0 minute blood glucose value;
3.5 Subsequently, according to the weight of the day, the aminals were immediately injected with pure water or glucose solution into the abdominal cavity, with a volume of 10 mL/kg and a glucose dose of 2 g/kg;
3.6 The blood glucose values of each mouse were measured, and the time and data were recorded after 15, 30, 60, 90, and 120 minutes of pure water or glucose solution injection;
The blood glucose (BG)-time curve was drawn, and the area under the blood glucose-time curve was calculated. The calculation formula is as follows: […]
Note: BG0, BG15, BG30, BG60, BG90, and BG120 represent blood glucose values before glucose administration (0 min) and 15, 30, 60, 90, and 120 min after glucose administration, respectively.
The blood glucose decline rate of AUC at each time point was calculated according to the average blood glucose value and AUC of blood glucose at each time point.

[3] = molecular target: T1, human GLP-1 receptor (Homo sapiens, UniProt P43220); assay: Stimulation of human GLP1 receptor stable transgenic cell line CHO-K1/GLP-1R/CRE-luc to produce cAMP (HTRF); format: cell-based; details: cAMP production, CHO-K1/GLP-1R/CRE-luc cells, 30 minutes incubation, 0.5 mM IBMX
T1 construct: expressed in transfected cells
Source text: I. Determination of the Ability of the Compound of the Present Invention to Stimulate Human GLP1 Receptor Stable Transgenic Cell Lines to Produce cAMP
The purpose of this test example is to determine the ability of the compound to activate the human GLP-1 receptor on the cell surface. The EC50 that stimulates […] after agonism characterizes the compound's ability to activate the human GLP-1 receptor.
The frozen human GLP1 receptor stable transgenic cell line CHO-K1/GLP-1R/CRE-luc was taken from the liquid nitrogen tank, quickly thawed in a 37° C. water bath, resuspended with DMEM/F12 medium, centrifuged, and washed once. The cells were resuspended with the experimental buffer, namely DMEM/F12 medium containing 0.1% casein, and the experimental buffer was used to adjust the cell density. The cells were spread on spread on a 384-well plate at a density of 2500 cells/5 μL/well, and then to each well was added 2.5 μL of buffer-prepared IBMX working solution with a final concentration of IBMX of 0.5 mM, and 2.5 μL of the compound sample with gradient dilution (starting at 1000 nM, 3-fold dilution, 11 concentrations). The plate was centrifuged at 1000 rpm for 1 minute, shaken for 30 seconds to mix well, and incubated at room temperature for 30 minutes. Detection was performed using the Cisbio cAMP—Gs Dynamic kit. cAMP-d2 and Anti-cAMP-Eu^3+-Cryptate were diluted 20-fold with cAMP Lysis & Detection Buffer, respectively, and mixed well. To each well was added 5 μL diluted cAMP-d2 solution, and then added 5 μL diluted Anti-cAMP-Eu3^+-Cryptate solution. The plate was shaken for 30 seconds, and incubated at room temperature for 1 hour in the dark. The signal reading of HTRF was performed using the Biotek Synergy H1 microplate reader with an excitation wavelength of 320 nm and emission wavelengths of 620 nm and 665 nm.
The signal ratio (665 nm/620 nm*10,000) was calculated, and the signal ratio and sample concentration were nonlinearly fitted using a four-parameter equation in GraphPad Prism 6 to obtain the EC50 value.

[4] = Pharmacokinetic assay of SD rats; format: in vivo; details: Sprague-Dawley, rat, po; male SD rats, plasma, dose 50 mg/kg (b1219 prints 5 mg/kg)
Method: SD rats were used as test animals. The pharmacokinetic behavior of the following example compounds was studied in the plasma of rats administered orally at a dose of 50 mg/kg.
Vehicle formula: 0.5% CMC-Na (1% Tween 80);
Three SD rats per group, male. […]
Before and after administration, 0.2 mL of blood was collected from the jugular vein at 0, 0.25, 0.5, 1, 2, 4, 6, 8 and 24 hours, placed in EDTA-K2 tubes, centrifuged at 6000 rpm at 4° C. for 6 min to separate the plasma. The plasma samples were stored at −80° C. The […] was fed 4 hours after the administration.
• 1) 160 μL of acetonitrile was added to 40 μL of the plasma sample for precipitation, and then the mixture was centrifuged at 3500×g for 5-20 min. • 2) After the above process, 100 μL of the supernatant was taken to analyze the concentration of the test compound by LC/MS/MS.
• Liquid chromatography condition: Shimadzu LC-20AD pump Mass spectrometry condition: AB Sciex API 4000 mass spectrometer Chromatographic column: phenomenex Gemiu 5 μm C18 50×4.6 mm • Mobile phase: Eluent A was 0.1% formic acid in water, and Eluent B was methanol • Flow rate: 1.0 mL/min • Elution time: 0-4.0 minutes, the eluent is as follows:
The main pharmacokinetic parameters were calculated using WinNonlin 8.2.

[5] = system: GLP-1R humanized C57BL/6 mice fed with high-fat diet; assay: Long-term administration: body weight and ingestion of GLP-1R humanized mice fed with high-fat diet; format: in vivo; details: HFD mice; for Weight (g)-D0 Mean: Day 0 (day of first administration, baseline), 10 mg/kg oral once a day; for Eeight (g)-D10 Mean / Weight (g)-D10 Mean: Day 10, 10 mg/kg oral once a day; for Body weight change(%)-D10 Mean: Day 10 versus Day 0, 10 mg/kg oral once a day
Source text: The purpose of this test is to evaluate the effects of long-term administration of the compound on the body weight and ingestion of GLP-1R humanized C57BL/6 mice fed with high-fat diet.
C57BL/6_hGLP-1R, male, 5-8 weeks; 60% high-fat diet (HFD); Ultra-clean workbench; Electronic balance.
3.1 On the day of feeding with high-fat diet, C57BL/6 mice were randomly divided into two groups according to their weight. The first group was Blank, with 7 mice fed with normal control diet, while the remaining animals were in the modeling group, fed with high-fat diet, and continued until the end of the experiment.
3.2 At the 8th week of HFD feeding, the modeling group animals were randomly divided with 7 animals per group according to their weight. The first group was the Vehicle group (Vehicle: 0.5% CMC Na+1% Tween 80), which was given vehicle; The remaining group was the administration group; Administration regimen: Oral administration of the corresponding compound, administration cycle was 14 days, once a day for 14 days, with an administration dose of 10 mg/kg and an administration volume of 10 mL/kg. The Blank group continued to be fed with normal diet without any administration operation.
3.3 The day of administration was defined as Day 0.
3.4 During each administration, animals were weighed and data was recorded. Oral administration is performed according to body weight, with an administration volume of 10 mL/kg.
3.5 Starting from Day 0 of the experiment, the food intake of each group of mice was measured once every three days. Specifically, the feed was changed after each weighing and administration, and the added and remaining amounts were recorded.
3.6 On the end day of Day 14, all mice were euthanized sequentially according to grouping order, and the livers were dissected and weighed.
The weight and weight change rate of mice after administration were summarize and statistically analyzed. Weight change rate calculation: (BWt−BW0)/BW0×100%. BWt represents the weight of the mice on Day t of the experiment, and BW0 represents the weight of the mice on Day 0 of the experiment.
Calculation of food intake: (added amount (g)−remaining amount (g))/number of animals per cage, cumulative food intake is the sum of daily food intake of each animal during the administration period.
Experimental data were analyzed using GraphPad Prism software. The t-test method was used for comparison between the two groups. The one-way ANOVA method was used for comparisons between three or more groups.

T1 sequence (P43220 24-463): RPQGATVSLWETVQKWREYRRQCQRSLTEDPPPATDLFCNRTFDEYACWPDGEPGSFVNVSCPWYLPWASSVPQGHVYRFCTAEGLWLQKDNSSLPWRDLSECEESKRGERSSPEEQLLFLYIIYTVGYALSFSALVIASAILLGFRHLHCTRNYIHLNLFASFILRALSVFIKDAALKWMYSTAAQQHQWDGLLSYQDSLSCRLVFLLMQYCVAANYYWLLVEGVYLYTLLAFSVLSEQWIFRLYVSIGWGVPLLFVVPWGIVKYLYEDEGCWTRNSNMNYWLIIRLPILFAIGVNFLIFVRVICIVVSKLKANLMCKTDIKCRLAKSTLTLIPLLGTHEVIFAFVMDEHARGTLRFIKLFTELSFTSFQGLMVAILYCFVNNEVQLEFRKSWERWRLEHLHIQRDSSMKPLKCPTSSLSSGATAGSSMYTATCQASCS

EC50 [3] [nM]	AUC(0-inf) [4] [ng·h/mL]	AUC(0-t) [4] [ng·h/mL]	Cmax [4] [ng/mL]	Tmax [4] [h]	half-life [4] [h]	Structure (SMILES)	hypoglycemic and weight reducing effects [1]	Blood glucose decline rate of AUC % [2] [%]	Weight (g)-D0 Mean ([5]; the 4th table) [g]	Eeight (g)-D10 Mean ([5]; the 4th table) [g]	Body weight change(%)-D10 Mean ([5]; the 4th table) [%]	Weight (g)-D0 Mean ([5]; the 3rd table) [g]	Weight (g)-D10 Mean ([5]; the 3rd table) [g]	Body weight change(%)-D10 Mean ([5]; the 3rd table) [%]
						N#Cc1ccc(COc2cccc(C3CCN(Cc4nc5ccc(C(=O)O)cc5n4C[C@@H]4CCO4)CC3)n2)c(F)c1 [PF-06882961]	significant hypoglycemic and weight reducing effects							
0.03	19100	19100	6400	2	3.8	O=C(O)c1ccc2nc(CN3CCC(c4cccc5c4O[C@@H](c4ccc(Cl)cc4F)C=C5)CC3)n(C[C@@H]3CCO3)c2n1 [Example 48, 2-((4-((R)-2-(4-Chloro-2-fluorophenyl)-2H-chromen-8-yl)piperidin-1-yl)methyl)-3-(((S)-oxetan-2-yl)methyl)-3H-imidazolo[4,5-b]pyridine-5-carboxylic acid]		62.89	28.23	25.85	−8.44			
0.07						[2H][C@]1(c2ccc(Cl)cc2F)C=Cc2cccc(C3CCN(Cc4nc5ccc(C(=O)O)nc5n4C[C@@H]4CCO4)CC3)c2O1 [Example 42, 2-((4-((R)-2-(4-Chloro-2-fluorophenyl)-2H-chromen-8-yl-2-d)piperidin-1-yl)methyl)-3-(((S)-oxetan-2-yl)methyl)-3H-imidazolo[4,5-b]pyridine-5-carboxylic acid]		56.79				28.54	26.04	−8.75
0.05						[2H]C([2H])([2H])Oc1cc(Cl)ccc1[C@@]1([2H])C=Cc2cccc(C3CCN(Cc4nc5ccc(C(=O)O)nc5n4C[C@@H]4CCO4)CC3)c2O1 [Example 43, 2-((4-((R)-2-(4-Chloro-2-(methoxy-d3)phenyl)-2H-chromen-8-yl-2-d)piperidin-1-yl)methyl)-3-(((S)-oxetan-2-yl)methyl)-3H-imidazolo[4,5-b]pyridine-5-carboxylic acid]		46.57	28.37	26.57	−6.37			
0.04						[2H]C([2H])([2H])Oc1cc(Cl)ccc1[C@@]1([2H])C=C(F)c2cccc(C3CCN(Cc4nc5ccc(C(=O)O)nc5n4C[C@@H]4CCO4)CC3)c2O1 [Example 41, 2-((4-((R)-2-(4-Chloro-2-(methoxy-d3)phenyl)-4-fluoro-2H-chromen-8-yl-2-d)piperidin-1-yl)methyl)-3-(((S)-oxetan-2-yl)methyl)-3H-imidazolo[4,5-b]pyridine-5-carboxylic acid]		53.09				28.54	26.20	−8.19
